Converted amounts (≈) assume the structure as drawn.
How the values were obtained:
Staphylococcus aureus = experiment: Inhibition of Staphylococcus aureus Topoisomerase 4 assessed as inhibition of supercoiled pBR322 DNA relaxation after 30 mins by agarose gel electrophoresis
[1] = molecular target: DNA gyrase (Staphylococcus aureus) (UniProt P0A0K8+P20831)
Sequence of DNA gyrase (Staphylococcus aureus) (P0A0K8 2-644 limits assumed): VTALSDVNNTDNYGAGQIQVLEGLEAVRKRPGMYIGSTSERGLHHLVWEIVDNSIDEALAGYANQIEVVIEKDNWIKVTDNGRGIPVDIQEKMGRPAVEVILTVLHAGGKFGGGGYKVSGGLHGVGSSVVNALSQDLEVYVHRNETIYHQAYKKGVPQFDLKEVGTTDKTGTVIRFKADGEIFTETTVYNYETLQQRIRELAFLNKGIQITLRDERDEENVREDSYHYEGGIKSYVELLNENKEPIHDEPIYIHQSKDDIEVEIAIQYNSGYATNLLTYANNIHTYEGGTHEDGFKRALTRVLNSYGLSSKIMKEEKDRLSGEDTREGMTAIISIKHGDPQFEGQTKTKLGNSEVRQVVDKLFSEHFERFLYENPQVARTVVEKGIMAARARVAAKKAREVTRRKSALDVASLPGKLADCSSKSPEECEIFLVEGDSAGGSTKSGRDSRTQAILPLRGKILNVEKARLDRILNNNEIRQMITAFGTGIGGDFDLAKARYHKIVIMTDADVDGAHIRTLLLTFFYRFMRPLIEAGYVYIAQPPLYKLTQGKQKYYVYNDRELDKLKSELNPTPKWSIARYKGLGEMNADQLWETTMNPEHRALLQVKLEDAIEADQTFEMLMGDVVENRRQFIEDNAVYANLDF
Sequence of DNA gyrase (Staphylococcus aureus) (P20831 whole entry partner): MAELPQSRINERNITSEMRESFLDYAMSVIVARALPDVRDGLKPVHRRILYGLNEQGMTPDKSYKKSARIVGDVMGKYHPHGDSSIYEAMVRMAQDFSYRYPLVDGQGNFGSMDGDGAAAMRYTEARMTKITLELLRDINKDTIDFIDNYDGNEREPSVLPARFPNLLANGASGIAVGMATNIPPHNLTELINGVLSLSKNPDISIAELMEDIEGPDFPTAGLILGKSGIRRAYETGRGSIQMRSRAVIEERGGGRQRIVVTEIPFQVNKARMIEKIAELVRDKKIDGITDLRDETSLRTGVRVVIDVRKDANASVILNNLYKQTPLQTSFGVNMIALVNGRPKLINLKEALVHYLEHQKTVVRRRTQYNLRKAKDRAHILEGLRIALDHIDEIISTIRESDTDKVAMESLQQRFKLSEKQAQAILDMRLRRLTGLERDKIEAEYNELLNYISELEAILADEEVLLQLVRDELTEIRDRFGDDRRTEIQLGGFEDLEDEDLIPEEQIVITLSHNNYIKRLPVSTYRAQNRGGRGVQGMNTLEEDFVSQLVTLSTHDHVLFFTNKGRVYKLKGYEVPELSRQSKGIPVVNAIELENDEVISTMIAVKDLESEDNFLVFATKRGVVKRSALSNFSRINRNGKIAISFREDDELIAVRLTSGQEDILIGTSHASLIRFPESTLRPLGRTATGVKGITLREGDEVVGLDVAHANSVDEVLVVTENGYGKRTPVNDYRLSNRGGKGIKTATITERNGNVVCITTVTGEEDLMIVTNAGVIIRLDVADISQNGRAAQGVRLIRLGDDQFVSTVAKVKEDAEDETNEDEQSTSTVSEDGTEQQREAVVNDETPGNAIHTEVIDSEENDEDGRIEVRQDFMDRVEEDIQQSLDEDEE
Description: Inhibition of Staphylococcus aureus DNA gyrase assessed as inhibition of negative supercoiling of pBR322 DNA after 30 mins by agarose gel electrophoresis

Row | Compound | MIC (Staphylococcus aureus) [µM] | MIC [1] [µM]
1 | O=C(O)[C@H](Cc1ccccc1)N1C(=O)/C(=C/c2cccc(Oc3ccccc3)c2)SC1=S | 10 (≈ 4.62 µg/mL) | 50 (≈ 23.1 µg/mL)
2 | O=C(O)[C@H](Cc1ccccc1)N1C(=O)/C(=C/c2cccc(Cc3ccc(Cl)c(Cl)c3)c2)SC1=S | 0.75 (≈ 0.396 µg/mL) | 7.5 (≈ 3.96 µg/mL)
3 | O=C(O)[C@H](Cc1ccccc1)N1C(=O)/C(=C/c2cccc(Oc3cccc(Cl)c3)c2)SC1=S | 7.5 (≈ 3.72 µg/mL) | 10 (≈ 4.96 µg/mL)
4 | O=C(O)[C@H](Cc1ccccc1)N1C(=O)/C(=C/c2cccc(Oc3ccc(Cl)c(Cl)c3)c2)SC1=S | 2.5 (≈ 1.33 µg/mL) | 5 (≈ 2.65 µg/mL)
5 | O=C(c1ccccc1)c1cccc(/C=C2\SC(=S)N([C@@H](Cc3ccccc3)C(=O)O)C2=O)c1 | 50 (≈ 23.7 µg/mL) | 50 (≈ 23.7 µg/mL)
6 | O=C(O)[C@@H](Cc1ccccc1)N1C(=O)/C(=C/c2cccc(Oc3ccc(F)cc3)c2)SC1=S | 5 (≈ 2.4 µg/mL) | 17.5 (≈ 8.39 µg/mL)
7 | O=C(O)[C@H](Cc1ccccc1)N1C(=O)/C(=C/c2cccc(-c3ccccc3)c2)SC1=S | 0.5 (≈ 0.223 µg/mL) | 17.5 (≈ 7.8 µg/mL)
8 | O=C(O)[C@H](Cc1ccccc1)N1C(=O)/C(=C/c2cccc(OCc3ccccc3)c2)SC1=S | 17.5 (≈ 8.32 µg/mL) | 25 (≈ 11.9 µg/mL)
9 | O=C(O)[C@H](Cc1ccccc1)N1C(=O)/C(=C/c2cccc(Cc3ccccc3)c2)SC1=S | 17.5 (≈ 8.04 µg/mL) | 25 (≈ 11.5 µg/mL)
10 | CO[C@@H]1[C@@H](OC(N)=O)[C@@H](O)[C@H](Oc2ccc3c(O)c(NC(=O)c4ccc(O)c(CC=C(C)C)c4)c(=O)oc3c2C)OC1(C)C | 2.5 (≈ 1.53 µg/mL) | 
11 | O=C(O)[C@H](Cc1ccccc1)N1C(=O)/C(=C/c2cccc(OC/C=C\c3ccccc3)c2)SC1=S | 5 (≈ 2.51 µg/mL) | 10 (≈ 5.02 µg/mL)
12 | O=C(O)[C@H](Cc1ccccc1)N1C(=O)/C(=C/c2cccc(-c3ccc(Cl)c(Cl)c3)c2)SC1=S | 10 (≈ 5.14 µg/mL) | 5 (≈ 2.57 µg/mL)

From ChEMBL document CHEMBL3612050, “Dual inhibition of Staphylococcus aureus DNA gyrase and topoisomerase IV activity by phenylalanine-derived (Z)-5-arylmethylidene rhodanines” (Bioorg Med Chem, 2015)
